Results taken from US20090239949A1, “Polar Hydrophilic Prodrugs of Amphetamine and Other Stimulants and Processes for Making and Using the Same” (priority 2007, published 2009).

Columns and labels:
[1] = Oral pharmacokinetic study of Cit-Amp vs Lys-Amp (Example 13); details: for % Tmax: relative to Lys-Amp
[2] = Intravenous pharmacokinetic study of d-amphetamine, hArg-Amp and Lys-Amp (Example 16); details: for % Tmax: relative to d-amp
[3] = Intranasal pharmacokinetic study of d-amphetamine, hArg-Amp and Lys-Amp (Example 15); details: for % Tmax: relative to d-amp
[4] = Oral pharmacokinetic study of Lys-Amp, Sar-Amp, hCit-Amp and hArg(NO2)-Amp (Example 14); details: for Cmax: plasma d-amphetamine, n=5
[5] = Average results of oral pharmacokinetic studies of hArg-Amp vs Lys-Amp (Table 3); details: relative to Lys-Amp
[6] = Pharmacokinetics of d-amphetamine after parenteral (intranasal, intravenous) administration of hArg-Amp (Example 1); details: parental routes (intranasal, intravenous)
[7] = Oral pharmacokinetic study of hArg-Amp vs Lys-Amp, plasma d-amphetamine by ELISA (Example 12); details: relative to Lys-Amp

With `C[C@@H](Cc1ccccc1)NC(=O)[C@@H](N)CCCNC(N)=O.Cl` [Cit-Amp, 1-citrulline-d-amphetamine hydrochloride] the “% Tmax” value [1] was 25%.

In the case of `C[C@H](N)Cc1ccccc1` [d-amp, d-amphetamine], the “% Tmax” value ([2]; intravenous) is reported as 100%, the Tmax ([2]; male, Sprague-Dawley, rat, in vivo, iv, […]) is reported as 5 min and the “% Tmax” value ([3]; intranasal) is reported as 100%. For the same molecule, the Tmax ([3]; male, Sprague-Dawley, rat, in vivo, inhaled or intranasal, […]) was 5 min.

Work on `C[C@@H](Cc1ccccc1)NC(=O)[C@@H](N)CCCCNC(N)=N[N+](=O)[O-]` [hArg(NO2)-Amp, l-homoarginine(NO2)-d-amphetamine] yielded a Cmax [4] of 59 ng/mL.

For `C[C@@H](Cc1ccccc1)NC(=O)[C@@H](N)CCCCN=C(N)N.Cl.Cl` [hArg-Amp, l-homoarginine-d-amphetamine dihydrochloride], the Tmax ([2]; intravenous, plasma d-amphetamine) was 5 m, the “% Tmax” value ([2]; intravenous) was 100% and the “% Tmax” value [5] was 200-400%. For the same molecule, the release of amphetamine [6] was under 25%, the Tmax ([3]; intranasal, plasma d-amphetamine) was 30 min and the “% Tmax” value ([3]; intranasal) was 600%.

In the case of “l-homocitrulline-d-amphetamine hydrochloride [hCit-Amp]”, the Cmax [4] is reported as 57 ng/mL.

With l-lysine-d-amphetamine [Lys-Amp] the Cmax ([1]; plasma d-amphetamine, n=5) was 59 ng/mL, the “% Tmax” value [1] was 100% and the “% Tmax” value ([2]; intravenous) was 100%. For the same molecule, the Cmax [4] was 54 ng/mL, the “% Tmax” value ([4]; relative to Lys-Amp) was 100% and the “% Tmax” value [5] was 100%. The “% Tmax” value ([3]; intranasal) was 3600% and the “% Tmax” value [7] was 100%.

Molecule sarcosine-d-amphetamine [Sar-Amp] has a Cmax [4] of 45 ng/mL.
